Patent US20230212170A1, “INHIBITORS OF KRAS G12C PROTEIN AND USES THEREOF” (SHANGHAI ANTENGENE CORPORATION LIMITED, priority 2020, published 2023)

molecular target: KRAS G12C (Homo sapiens, UniProt P01116, G12C); assay: KRAS G12C nucleotide exchange assay (SOS1-mediated, mant-GDP fluorescence); type: biochemical; design: KRas(1-169) G12C protein; conditions: 15 min pre-incubation
Method: Assay 1: KRAS G12C Nucleotide Exchange Assay
1×Loading buffer: 20 mM HEPES, pH 7.5, 50 mM NaCl, 0.5 mM MgCl2, 1 mM DTT, 5 mM EDTA
1×Equilibration buffer: 20 mM HEPES, pH 7.5, 150 mM NaCl, 1 mM MgCl2, 1 mM DTT
1×Assay buffer: 20 mM HEPES, pH 7.5, 150 mM NaCl, 1 mM MgCl2, 0.01% Tween-20, 1 mM DTT
2. Load Mant GDP to KRAS G12C:
a. A mixed solution of 100 µL mant GDP and KRAS G12C was prepared with 1×loading buffer: 60 um KRAS G12C, 600 um […], incubated at room temperature for 60 minutes, and the reaction was carried out in dark conditions.
b. Add 1 uL 1 m MgCl2 (final concentration 10 mm) to stop the reaction, mix the solution upside down in the centrifuge tube, centrifugate for 3-5 seconds, and incubate at room temperature for 30 minutes.
c. At the same time of incubation for 30 minutes, balance nap-5 column with 10 ml ix equipment buffer until no liquid drops.
d. Drop the mixed solution of 100 uL mant GDP and KRAS G12C into the center of nap-5 column. After the sample completely enters nap-5 column, add 400 µL 1× equipment buffer until no liquid drops.
e. Add 500 ul 1× equipment buffer for elution and collect eluant.
f. Determination of KRAS G12C mant GDP with Bradford protein quantitative Kit.
3. Nucleotide Exchange Experiment:
a. Transfer 50 NL DMSO/compound to 384 well plate with echo550.
b. 10 uL enzyme mix was added into 384 pore plate and incubated with DMSO/compound for 15 min.
c. Initial reaction with 10 µL Sos1/GTP mix.
d. Immediately after reaction, read ex360/em440 fluorescence value in kinetic mode with Nivo.
a. Use Graphpad software to process data and draw pictures.
b. K value is obtained in Graphpad software by fitting One phase experimental deck model.
c. Z′=1-3*(SdKmax+SdKmin)/(AveKmax−AveKmin)
d. In % is calculated by the following formula:
Inh%=(Kmax−Ksample)/(Kmax−Kmin)*100

Sequence of KRAS G12C (P01116 1-169 isoform P01116-2 G12C): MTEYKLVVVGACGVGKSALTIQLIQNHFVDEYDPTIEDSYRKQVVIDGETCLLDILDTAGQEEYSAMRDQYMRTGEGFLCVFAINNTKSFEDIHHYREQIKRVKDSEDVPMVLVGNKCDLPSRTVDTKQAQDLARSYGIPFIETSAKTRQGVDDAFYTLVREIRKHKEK

Question: For `C=CC(=O)N1CCN(c2nc(OC[C@@H]3CCCN3C)nc3c(=O)n(-c4cccc5cccc(Cl)c45)c(CC)nc23)C[C@@H]1CC#N` [Compound 13, 2-((S)-1-acryloyl-4-(7-(8-chloronaphthalen-1-yl)-6-ethyl-2-(((S)-1-methylpyrrolidin-2-yl)methoxy)-8-oxo-7,8-dihydropyrimido[5,4-d]pyrimidin-4-yl)piperazin-2-yl)acetonitrile], which IC50 is on record?
Answer: Its IC50 is 390 nM.

Question: With `C=CC(=O)N1CCN(c2nc(OC[C@@H]3CCCN3C)nc3c(=O)n(-c4cccc5ccccc45)c(CC)nc23)C[C@@H]1CC#N` [Compound 14, 2-((S)-1-acryloyl-4-(6-ethyl-2-(((S)-1-methylpyrrolidin-2-yl)methoxy)-7-(naphthalen-1-yl)-8-oxo-7,8-dihydropyrimido[5,4-d]pyrimidin-4-yl)piperazin-2-yl)acetonitrile] as the compound, how does the IC50 read?
Answer: The IC50 was 860 nM.

Question: How did the IC50 turn out when `C=CC(=O)N1CCN(c2nc(OC[C@@H]3CCCN3C)nc3c(=O)n(-c4cccc5ncccc45)c(C)nc23)C[C@@H]1CC#N` [Compound 15, 2-((S)-1-acryloyl-4-(6-methyl-2-(((S)-1-methylpyrrolidin-2-yl)methoxy)-8-oxo-7-(quinolin-5-yl)-7,8-dihydropyrimido[5,4-d]pyrimidin-4-yl)piperazin-2-yl)acetonitrile] was run?
Answer: The IC50 was 2930 nM.

Question: With `C=CC(=O)N1CCN(c2nc(OC[C@@H]3CCCN3C)nc3c(=O)n(-c4c(C)c(C)cc5[nH]ncc45)c(C)nc23)C[C@@H]1CC#N` [Compound 16, 2-((S)-1-acryloyl-4-(7-(5,6-dimethyl-1H-indazol-4-yl)-6-methyl-2-(((S)-1-methylpyrrolidin-2-yl)methoxy)-8-oxo-7,8-dihydropyrimido[5,4-d]pyrimidin-4-yl)piperazin-2-yl)acetonitrile] as the compound, how does the IC50 read?
Answer: Its IC50 is 820 nM.

Question: With `C=CC(=O)N1CCN(c2nc(OC[C@@H]3CCCN3C)nc3c(=O)n(-c4cccc5ccccc45)c(-c4ccccc4)nc23)C[C@@H]1CC#N` [Compound 17, 2-((S)-1-acryloyl-4-(2-(((S)-1-methylpyrrolidin-2-yl)methoxy)-7-(naphthalen-1-yl)-8-oxo-6-phenyl-7,8-dihydropyrimido[5,4-d]pyrimidin-4-yl)piperazin-2-yl)acetonitrile] as the compound, how does the IC50 read?
Answer: Its IC50 is 480 nM.

Question: For `C=CC(=O)N1CCN(c2nc(OC[C@@H]3CCCN3C)nc3c(=O)n(-c4cccc5ccccc45)c(-c4ccccc4)nc23)CC1` [Compound 18, (S)-8-(4-acryloylpiperazin-1-yl)-6-((1-methylpyrrolidin-2-yl)methoxy)-3-(naphthalen-1-yl)-2-phenylpyrimido[5,4-d]pyrimidin-4(3H)-one], which IC50 is on record?
Answer: The IC50 was 9970 nM.

Question: `C=CC(=O)N1CCN(c2nc(OC[C@@H]3CCCN3C)nc3c2CCCC(c2c(C)ccc4[nH]ncc24)C3)CC1` (stereo partly drawn) [Compound 20, 1-(4-(8-(5-methyl-1H-indazol-4-yl)-2-(((S)-1-methylpyrrolidin-2-yl)methoxy)-6,7,8,9-tetrahydro-5H-cyclohepta[d]pyrimidin-4-yl)piperazin-1-yl)prop-2-en-1-one] was tested. Which IC50 did it give?
Answer: Its IC50 is 2880 nM.

Question: For `C=CC(=O)N(C)C1CCN(c2nc(OC[C@@H]3CCCN3C)nc3c2CCN(c2cccc4cccc(Cl)c24)C3)C1` (stereo partly drawn) [Compound 21, N-(1-(7-(8-chloronaphthalen-1-yl)-2-(((S)-1-methylpyrrolidin-2-yl)methoxy)-5,6,7,8-tetrahydropyrido[3,4-d]pyrimidin-4-yl)pyrrolidin-3-yl)-N-methylacrylamide], which IC50 is on record?
Answer: Its IC50 is 19000 nM.

Question: How did the IC50 turn out when `C=CC(=O)N1CCN(c2nc(OC[C@@H]3CCCN3C)nc3c(=O)n(-c4c(C)ccc5[nH]ncc45)c(C)nc23)CC1` [Compound 22, (S)-8-(4-acryloylpiperazin-1-yl)-2-methyl-3-(5-methyl-1H-indazol-4-yl)-6-((1-methylpyrrolidin-2-yl)methoxy)pyrimido[5,4-d]pyrimidin-4(3H)-one] was run?
Answer: The IC50 was 22900 nM.

Question: For `C=CC(=O)N1CCN(c2nc(OC[C@@H]3CCCN3C)nc3c(=O)n(-c4c(C)ccc5[nH]ncc45)c(C)nc23)C[C@@H]1CC#N` [Compound 23, 2-((S)-1-acryloyl-4-(6-methyl-7-(5-methyl-1H-indazol-4-yl)-2-(((S)-1-methylpyrrolidin-2-yl)methoxy)-8-oxo-7,8-dihydropyrimido[5,4-d]pyrimidin-4-yl)piperazin-2-yl)acetonitrile], which IC50 is on record?
Answer: The IC50 was 710 nM.
